Series [1] deals with 5-hydroxytryptamine receptor 2B (Homo sapiens) (UniProt P41595). The series is described as follows: 5HT2B/HU Eurofins SafetyScreen44 (BI). As to conditions: Compound concentration 10.0 uM; call rule not given here.
The target of series [2] is T1, Alpha-1A adrenergic receptor (Homo sapiens) (UniProt P35348).
T1 sequence (whole entry): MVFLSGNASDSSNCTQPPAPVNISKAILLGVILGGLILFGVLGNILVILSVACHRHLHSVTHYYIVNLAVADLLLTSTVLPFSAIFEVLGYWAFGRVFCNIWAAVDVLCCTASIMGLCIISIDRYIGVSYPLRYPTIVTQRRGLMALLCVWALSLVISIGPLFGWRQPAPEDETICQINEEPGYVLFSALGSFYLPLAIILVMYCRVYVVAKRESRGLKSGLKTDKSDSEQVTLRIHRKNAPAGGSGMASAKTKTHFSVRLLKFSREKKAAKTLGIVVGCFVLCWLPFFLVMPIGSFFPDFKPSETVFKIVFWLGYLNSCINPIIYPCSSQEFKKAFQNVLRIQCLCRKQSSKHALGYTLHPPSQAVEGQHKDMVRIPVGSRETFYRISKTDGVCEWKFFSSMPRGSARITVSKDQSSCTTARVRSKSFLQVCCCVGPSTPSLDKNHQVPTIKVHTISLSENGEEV
The series is described as follows: ALPHA1A/R Eurofins SafetyScreen44 (BI). As to conditions: Rattus norvegicus; Compound concentration 10.0 uM.

The target in series [3] is Cannabinoid receptor 1 (Homo sapiens) (UniProt P21554). Put plainly: CB1 Eurofins SafetyScreen44 (BI). As to conditions: Compound concentration 10.0 uM.
In series [4] the target is Sodium- and chloride-dependent GABA transporter 1 (Rattus norvegicus) (UniProt P23978). Put plainly: GABATRANS/RA Eurofins SafetyScreen44 (BI). As to conditions: Compound concentration 10.0 uM.
Series [5] concerns the target T2, Muscarinic acetylcholine receptor M2 (Homo sapiens) (UniProt P08172).
T2 sequence (whole entry): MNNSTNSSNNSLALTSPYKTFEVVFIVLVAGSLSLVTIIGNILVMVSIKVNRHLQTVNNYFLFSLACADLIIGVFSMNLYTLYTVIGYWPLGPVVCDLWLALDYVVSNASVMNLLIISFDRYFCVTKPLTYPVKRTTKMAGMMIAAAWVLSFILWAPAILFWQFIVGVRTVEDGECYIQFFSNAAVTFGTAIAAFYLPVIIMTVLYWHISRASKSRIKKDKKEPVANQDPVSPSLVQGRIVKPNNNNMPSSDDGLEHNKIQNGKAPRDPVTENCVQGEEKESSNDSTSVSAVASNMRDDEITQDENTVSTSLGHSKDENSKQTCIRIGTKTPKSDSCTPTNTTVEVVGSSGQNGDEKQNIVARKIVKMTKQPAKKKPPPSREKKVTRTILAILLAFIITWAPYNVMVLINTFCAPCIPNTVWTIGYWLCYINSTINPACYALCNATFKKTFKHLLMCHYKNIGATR
Put plainly: M2/HU Eurofins SafetyScreen44 (BI). As to conditions: Compound concentration 10.0 uM.

For series [6], the target named is Melatonin receptor type 1A (Homo sapiens) (UniProt P48039). The series is described as follows: MT1/H Eurofins SafetyScreen44 (BI). As to conditions: Compound concentration 10.0 uM.
The target of series [7] is Nicotinic acetylcholine receptor alpha-1/beta-1 (Homo sapiens) (UniProt P02708+P11230). Put plainly: NACH_BS_N/H Eurofins SafetyScreen44 (BI). The format is protein-complex assay. As to conditions: Compound concentration 10.0 uM.
In series [8] the target is Glutamate receptor ionotropic, NMDA 1 (Rattus norvegicus) (UniProt P35439). Put plainly: NMDAGLSI/RA Eurofins SafetyScreen44 (BI). As to conditions: Compound concentration 10.0 uM.
The target of series [9] is P2X purinoceptor (Oryctolagus cuniculus) (UniProt G1U3D6). The series is described as follows: P2X/RB Eurofins SafetyScreen44 (BI). As to conditions: Compound concentration 10.0 uM.
The target of series [10] is 3',5'-cyclic-AMP phosphodiesterase 4A (Rattus norvegicus) (UniProt P54748). Put plainly: ROLIPRAM/R Eurofins SafetyScreen44 (BI). As to conditions: Compound concentration 10.0 uM.
The target of series [11] is Sigma non-opioid intracellular receptor 1 (Homo sapiens) (UniProt Q99720). The series is described as follows: SIGMA1/HU Eurofins SafetyScreen44 (BI). As to conditions: Compound concentration 10.0 uM.
For series [12], the target named is Kappa-type opioid receptor (Homo sapiens) (UniProt P41145). Put plainly: KAPPA(KOP)_HU Eurofins SafetyScreen44 (BI). As to conditions: Compound concentration 10.0 uM.
Series [13] addresses Angiotensin-converting enzyme (Homo sapiens) (UniProt P12821). The series is described as follows: ACE(HU_AMTCH400) Eurofins SafetyScreen44 (BI). As to conditions: Compound concentration 10.0 uM.
The target of series [14] is T1, Alpha-1A adrenergic receptor (Homo sapiens). The series is described as follows: ALPHA1AH_ANTAG Eurofins SafetyScreen44 (BI). As to conditions: filed as antagonist, Compound concentration 10.0 uM.
The target in series [15] is T3, Alpha-2A adrenergic receptor (Homo sapiens) (UniProt P08913).
T3 sequence (whole entry): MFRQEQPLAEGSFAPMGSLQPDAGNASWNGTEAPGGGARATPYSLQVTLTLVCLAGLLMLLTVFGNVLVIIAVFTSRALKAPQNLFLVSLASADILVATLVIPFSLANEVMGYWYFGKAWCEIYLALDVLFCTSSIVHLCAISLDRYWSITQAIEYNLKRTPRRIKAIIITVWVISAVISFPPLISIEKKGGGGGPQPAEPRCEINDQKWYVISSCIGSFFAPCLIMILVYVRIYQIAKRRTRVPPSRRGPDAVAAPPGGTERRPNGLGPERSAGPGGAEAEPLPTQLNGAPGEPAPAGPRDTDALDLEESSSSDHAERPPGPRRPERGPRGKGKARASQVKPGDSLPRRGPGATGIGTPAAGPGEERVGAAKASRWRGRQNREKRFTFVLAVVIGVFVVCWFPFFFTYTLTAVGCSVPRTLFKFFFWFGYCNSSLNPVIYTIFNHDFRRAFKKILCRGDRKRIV
The series is described as follows: ALPHA2A/HU Eurofins SafetyScreen44 (BI). As to conditions: Compound concentration 10.0 uM.

The target in series [16] is Voltage-dependent L-type calcium channel subunit alpha-1C (dihydropyridine site) (Rattus norvegicus, UniProt P22002). The series is described as follows: CA+/DHPSI/R Eurofins SafetyScreen44 (BI). Set-up: mode of action inhibitor. As to conditions: rat brain, probe [3H](+)PN200-110, compound concentration 10 uM, read-out: % Ctrl.
Series [17] concerns the target Cannabinoid receptor 2 (Homo sapiens) (UniProt P34972). Put plainly: CB2/PERIPH/H Eurofins SafetyScreen44 (BI). As to conditions: Compound concentration 10.0 uM.
Series [18] addresses Delta-type opioid receptor (Homo sapiens) (UniProt P41143). The series is described as follows: DELTA2/H Eurofins SafetyScreen44 (BI). As to conditions: Compound concentration 10.0 uM.
The target in series [19] is Histamine H1 receptor (Homo sapiens) (UniProt P35367). Put plainly: H1/PYRIL/HS Eurofins SafetyScreen44 (BI). As to conditions: Compound concentration 10.0 uM.
For series [20], the target named is Tyrosine-protein kinase Lck (Homo sapiens) (UniProt P06239). Put plainly: LCK_CE Eurofins SafetyScreen44 (BI). As to conditions: Compound concentration 10.0 uM.
The target of series [21] is Glutamate receptor ionotropic, NMDA 2A (Rattus norvegicus) (UniProt Q00959). Put plainly: NMDA/R Eurofins SafetyScreen44 (BI). As to conditions: Compound concentration 10.0 uM.

Molecules are shown by their SMILES.

We go through two molecules from ChEMBL document CHEMBL5058643, “Data for DCP probe BI-2081” (2022).

Histamine H1 receptor (Homo sapiens), sequence (P35367 whole entry): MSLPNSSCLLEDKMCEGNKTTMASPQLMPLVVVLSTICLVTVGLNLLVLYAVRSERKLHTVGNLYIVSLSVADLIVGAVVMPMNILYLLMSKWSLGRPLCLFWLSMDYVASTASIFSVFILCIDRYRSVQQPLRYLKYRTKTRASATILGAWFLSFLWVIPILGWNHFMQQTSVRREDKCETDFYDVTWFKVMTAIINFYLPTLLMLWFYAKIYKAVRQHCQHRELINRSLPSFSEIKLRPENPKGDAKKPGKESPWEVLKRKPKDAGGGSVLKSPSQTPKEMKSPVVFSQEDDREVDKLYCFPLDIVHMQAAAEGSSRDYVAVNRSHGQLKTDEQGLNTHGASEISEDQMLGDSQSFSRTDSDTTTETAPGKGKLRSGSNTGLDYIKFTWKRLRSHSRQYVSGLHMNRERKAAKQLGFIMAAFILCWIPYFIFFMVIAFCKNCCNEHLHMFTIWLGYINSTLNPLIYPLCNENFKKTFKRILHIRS
Sigma non-opioid intracellular receptor 1 (Homo sapiens), sequence (Q99720 whole entry): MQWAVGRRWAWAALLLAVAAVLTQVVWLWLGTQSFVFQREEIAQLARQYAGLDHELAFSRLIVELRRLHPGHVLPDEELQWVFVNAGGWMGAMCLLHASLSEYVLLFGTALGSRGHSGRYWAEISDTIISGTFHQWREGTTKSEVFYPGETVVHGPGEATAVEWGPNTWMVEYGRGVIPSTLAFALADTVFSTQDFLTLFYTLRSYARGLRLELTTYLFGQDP
P2X purinoceptor (Oryctolagus cuniculus), sequence (G1U3D6 as listed by the source): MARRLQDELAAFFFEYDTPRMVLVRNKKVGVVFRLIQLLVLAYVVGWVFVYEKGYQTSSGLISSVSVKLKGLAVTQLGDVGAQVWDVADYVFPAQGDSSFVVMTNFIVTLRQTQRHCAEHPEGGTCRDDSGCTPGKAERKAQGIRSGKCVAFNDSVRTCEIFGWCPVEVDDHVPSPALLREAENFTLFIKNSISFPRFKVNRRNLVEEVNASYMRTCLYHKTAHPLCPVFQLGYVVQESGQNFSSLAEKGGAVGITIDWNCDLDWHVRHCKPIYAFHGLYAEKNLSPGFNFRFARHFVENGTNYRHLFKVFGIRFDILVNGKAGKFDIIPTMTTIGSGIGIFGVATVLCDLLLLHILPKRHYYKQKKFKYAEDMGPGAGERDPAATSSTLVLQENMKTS
Glutamate receptor ionotropic, NMDA 2A (Rattus norvegicus), sequence (Q00959 23-1464 limits assumed): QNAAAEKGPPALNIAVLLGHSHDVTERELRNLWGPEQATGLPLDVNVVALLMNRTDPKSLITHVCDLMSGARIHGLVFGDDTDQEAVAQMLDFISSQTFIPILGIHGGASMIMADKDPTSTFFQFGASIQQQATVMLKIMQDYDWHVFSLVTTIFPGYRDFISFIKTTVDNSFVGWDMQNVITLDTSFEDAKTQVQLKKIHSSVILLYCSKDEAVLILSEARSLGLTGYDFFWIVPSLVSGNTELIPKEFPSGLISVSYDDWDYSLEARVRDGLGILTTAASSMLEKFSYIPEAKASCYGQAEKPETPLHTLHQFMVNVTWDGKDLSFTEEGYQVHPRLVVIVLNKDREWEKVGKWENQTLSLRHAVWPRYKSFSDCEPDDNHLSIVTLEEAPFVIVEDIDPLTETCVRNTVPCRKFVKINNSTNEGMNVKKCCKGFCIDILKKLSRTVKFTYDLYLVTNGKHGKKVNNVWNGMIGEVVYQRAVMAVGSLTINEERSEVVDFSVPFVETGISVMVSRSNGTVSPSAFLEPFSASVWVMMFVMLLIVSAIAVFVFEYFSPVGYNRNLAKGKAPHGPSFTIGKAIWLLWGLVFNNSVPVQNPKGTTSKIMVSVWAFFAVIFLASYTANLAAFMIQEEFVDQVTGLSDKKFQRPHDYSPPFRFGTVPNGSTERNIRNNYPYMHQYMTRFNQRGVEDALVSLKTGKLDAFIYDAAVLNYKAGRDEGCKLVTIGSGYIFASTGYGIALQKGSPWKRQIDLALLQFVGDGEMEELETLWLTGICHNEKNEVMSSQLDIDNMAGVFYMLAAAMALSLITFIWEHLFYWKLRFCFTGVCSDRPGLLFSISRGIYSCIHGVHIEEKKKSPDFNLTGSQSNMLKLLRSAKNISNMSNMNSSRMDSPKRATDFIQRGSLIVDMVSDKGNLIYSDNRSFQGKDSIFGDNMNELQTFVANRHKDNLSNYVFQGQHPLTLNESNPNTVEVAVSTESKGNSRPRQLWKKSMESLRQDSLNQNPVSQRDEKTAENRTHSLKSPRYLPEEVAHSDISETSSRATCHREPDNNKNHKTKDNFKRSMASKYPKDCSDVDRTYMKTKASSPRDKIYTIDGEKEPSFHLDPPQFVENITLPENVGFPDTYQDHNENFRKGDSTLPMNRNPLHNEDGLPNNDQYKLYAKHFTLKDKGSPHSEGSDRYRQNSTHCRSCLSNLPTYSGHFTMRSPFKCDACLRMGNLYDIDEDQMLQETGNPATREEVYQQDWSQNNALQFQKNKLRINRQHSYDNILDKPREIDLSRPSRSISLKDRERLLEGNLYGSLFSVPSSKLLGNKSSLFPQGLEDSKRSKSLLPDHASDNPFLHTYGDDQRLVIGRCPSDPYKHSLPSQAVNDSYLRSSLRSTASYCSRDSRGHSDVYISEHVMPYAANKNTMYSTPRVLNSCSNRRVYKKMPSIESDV
Delta-type opioid receptor (Homo sapiens), sequence (P41143 whole entry): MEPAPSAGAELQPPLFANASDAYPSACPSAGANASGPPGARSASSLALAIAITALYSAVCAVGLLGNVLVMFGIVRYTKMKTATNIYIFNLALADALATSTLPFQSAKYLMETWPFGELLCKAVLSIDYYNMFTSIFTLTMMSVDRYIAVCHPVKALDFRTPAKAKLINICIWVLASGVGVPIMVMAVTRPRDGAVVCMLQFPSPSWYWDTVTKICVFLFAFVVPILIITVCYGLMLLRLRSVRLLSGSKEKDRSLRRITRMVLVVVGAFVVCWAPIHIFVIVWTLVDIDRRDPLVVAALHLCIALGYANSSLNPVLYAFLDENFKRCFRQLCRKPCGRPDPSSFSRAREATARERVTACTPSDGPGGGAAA
Cannabinoid receptor 1 (Homo sapiens), sequence (P21554 whole entry): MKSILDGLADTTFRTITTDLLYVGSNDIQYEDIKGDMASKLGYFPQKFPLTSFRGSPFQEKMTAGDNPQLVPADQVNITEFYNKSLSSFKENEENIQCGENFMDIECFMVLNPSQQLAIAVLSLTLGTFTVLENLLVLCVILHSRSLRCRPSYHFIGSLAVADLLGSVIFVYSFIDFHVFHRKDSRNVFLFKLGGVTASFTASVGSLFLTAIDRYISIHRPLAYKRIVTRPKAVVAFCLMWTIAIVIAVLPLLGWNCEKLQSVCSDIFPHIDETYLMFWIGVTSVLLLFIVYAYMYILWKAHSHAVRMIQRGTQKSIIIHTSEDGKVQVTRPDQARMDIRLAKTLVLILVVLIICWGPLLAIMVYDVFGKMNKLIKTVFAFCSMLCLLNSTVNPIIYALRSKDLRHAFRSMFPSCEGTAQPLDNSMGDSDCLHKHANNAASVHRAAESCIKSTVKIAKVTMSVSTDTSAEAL
3',5'-cyclic-AMP phosphodiesterase 4A (Rattus norvegicus), sequence (P54748 whole entry): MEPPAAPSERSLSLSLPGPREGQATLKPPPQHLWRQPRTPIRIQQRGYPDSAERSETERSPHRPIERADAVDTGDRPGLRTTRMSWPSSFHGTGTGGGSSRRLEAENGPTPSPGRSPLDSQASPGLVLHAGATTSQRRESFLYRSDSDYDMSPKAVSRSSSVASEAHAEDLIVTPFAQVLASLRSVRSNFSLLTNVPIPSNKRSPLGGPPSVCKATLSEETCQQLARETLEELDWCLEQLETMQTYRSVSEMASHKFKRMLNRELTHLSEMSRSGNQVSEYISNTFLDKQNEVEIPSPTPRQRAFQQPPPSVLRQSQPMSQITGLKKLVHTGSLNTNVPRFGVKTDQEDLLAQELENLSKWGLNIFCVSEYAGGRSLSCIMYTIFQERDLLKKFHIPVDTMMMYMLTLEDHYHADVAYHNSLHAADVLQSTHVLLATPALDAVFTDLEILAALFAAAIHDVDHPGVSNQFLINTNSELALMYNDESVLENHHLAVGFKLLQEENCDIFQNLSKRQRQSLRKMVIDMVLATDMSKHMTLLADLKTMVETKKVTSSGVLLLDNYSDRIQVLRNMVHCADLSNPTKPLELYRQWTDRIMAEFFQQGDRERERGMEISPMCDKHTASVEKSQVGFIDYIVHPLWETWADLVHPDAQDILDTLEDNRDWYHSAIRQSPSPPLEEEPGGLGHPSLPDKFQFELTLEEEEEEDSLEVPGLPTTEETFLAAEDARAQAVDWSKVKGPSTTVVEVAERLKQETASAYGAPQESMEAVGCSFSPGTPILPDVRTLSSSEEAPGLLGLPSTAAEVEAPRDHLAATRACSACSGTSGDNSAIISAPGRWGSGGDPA

Regarding `Cc1cc(OCCC(C)(C)O)cc(C)c1-c1ccc(F)c2c1CC[C@H]2Oc1ccc2c(c1)OC[C@H]2CC(=O)O`, the residual activity is 82% in [1]; 73% in series [2]; 100% in [3]; 88% in series [4]; 92% in [5]; 98% in series [6]. Besides, the residual activity in [7] is 84%; in [8], 86%; in [9] it was 122%; in series [10] it was 105%; in series [11], 91%.
As to `COCCCS(=O)(=O)c1cc(C)c(-c2ccc(F)c3c2CC[C@H]3Oc2ccc3c(c2)OC[C@H]3CC(=O)O)c(C)c1`, the residual activity in series [12] is 96%; in [13] it was 99%; in series [14] it was 95%; in [15] it was 94%; in [17], 115%; in [18], 89%. In addition, the residual activity in series [19] is 87%; in series [20] it was 77%; in [21] it was 87%. The activity at 10 µM in [16] is listed as 90% (not active).
